Measurements from patent US4465683A, “Anti-psychotic agents” (priority 1979, dated 1984).
Structures can show the parent of a compound that is named as a salt. Where two headings read alike, the source gives them in different places.

How the values were obtained:
[1] = test system: conditioned avoidance response (CAR); test: conditioned avoidance response (CAR) in rats, shuttle box technique, oral; format: in vivo; details: Rattus norvegicus, read-out: ORAL CAR-ED50
Procedure: The apparatus employed is a box having a six-inch barrier separating two equal compartments. The floor of the left side of the box contains an electrified grid by means of which an intermittent shock is administered. The other side is not electrified. Rats are trained by placing them individually in the electrified compartment of the box and administering a foot shock which causes the rat to jump the barrier to the non-electrified side. […] The test drug is then administered in various doses to different groups of rats and the effect of the treatment in terms of the number of rats which fail to jump the barrier before receiving a foot shock is measured. That dose of test drug which will reduce the number of conditioned animals jumping the barrier before receiving a foot shock by one-half is referred to as the CAR-ED50.

pernicious preening = test: Prevention of pernicious preening in mice (anti-psychotic or analgetic); format: in vivo; details: Mus musculus, po
reserpine ptosis = test: Prevention of reserpine ptosis in mice (anti-depressant); format: in vivo
phenylquinone writhing = test: Reduction of phenylquinone writhing in mice (analgesic); format: in vivo; details: Mus musculus, po
[2] = U.S. Pat. No. 3,381,009; cited from earlier work
[3] = compared with imipramine; cited from earlier work
schizophrenic patients = details: et al. (1973), cited from earlier work
[4] = rats, oral, dose reducing by one-half the number of conditioned animals jumping the barrier before foot shock

**Q.** For `CN(C)CCCN1c2ccccc2Sc2ccc(Cl)cc21` [Chlorpromazine], which ED50 ([1]; po) is on record?
**A.** 38.7 mg/kg

**Q.** With `COc1ccccc1N1CCN(CCCCn2nc3ccccn3c2=O)CC1` [Formula I, R^1 = H, R^2 = 2-CH3 O, 2-[4-[4(2-Methoxphenyl)-1-piperazinyl]-butyl]-1,2,4-triazolo[4,3-a]pyridin-3-(2H)-one Hydrochloride] as the compound, how does the ED50 [1, 4] read?
**A.** 18.4 mg/kg

**Q.** For `Cl.O=c1n(CCCCN2CCN(c3cccc(C(F)(F)F)c3)CC2)nc2ccccn12` [Formula I, R^1 = H, R^2 = 3-CF3, 2-[4-[4-[3-(Trifluoromethyl)phenyl]-1-piperazinyl]butyl]-1,2,4-triazolo[4,3-a]pyridin-3(2H)-one Hydrochloride], which ED50 [1, 4] is on record?
**A.** 11.4 mg/kg

**Q.** For `O=c1n(CCCCN2CCN(c3cccc(Cl)c3)CC2)nc2ccccn12` [Formula I, R^1 = H, R^2 = 3-Cl, 2-[4-[4-(3-Chlorophenyl)piperazin-1-yl]butyl]-1,2,4-triazolo[4,3-a]pyridin-3-(2H)-one], which ED50 [1, 4] is on record?
**A.** 9 mg/kg

**Q.** What about the ED50 (pernicious preening) of the same compound?
**A.** 8 mg/kg

**Q.** And the “activity in prevention of reserpine ptosis” value (reserpine ptosis; at 15.7 mg/kg (p.o.))?
**A.** inactive

**Q.** What about the ED50 (phenylquinone writhing) of the same compound?
**A.** 23 mg/kg

**Q.** Which ED50 [1, 4] does the source give for `O=c1n(CCCN2CCN(c3cccc(Cl)c3)CC2)nc2ccccn12` [Trazodone, 2-[3-[4-(3-chlorophenyl)-1-piperazinyl]-propyl]-1,2,4-triazolo[4,3-a]pyridin-3(2H)-one] here?
**A.** 45.4 mg/kg

**Q.** What about the ED50 (pernicious preening) of the same compound?
**A.** 43 mg/kg

**Q.** What about the ED50 (reserpine ptosis; Mus musculus, po) of the same compound?
**A.** 36 mg/kg

**Q.** And the “pharmacological actions in animal tests” value [2]?
**A.** tranquilizing action, hypotensive action, and analgesic action

**Q.** And the clinical antidepressant effectiveness [3]?
**A.** equivalent in effectiveness to imipramine

**Q.** What about the “side effects in clinical use” value [3] of the same compound?
**A.** fewer side effects

**Q.** What about the “effect on depressive symptoms exhibited by schizophrenics” value (schizophrenic patients; Ban) of the same compound?
**A.** improvement in depressive symptoms

**Q.** What about the “anti-psychotic action in schizophrenic patients” value (schizophrenic patients; Galvan) of the same compound?
**A.** minimal
